# Measurements from US12263175B2, “Optimised dosage of diaminophenothiazines in populations” (WisTa Laboratories Ltd., priority 2018, dated 2025).
# Test: Treatment-emergent adverse events, three Phase 3 double-blind studies, LMTM pooled safety population
# Assay type: in vivo, human
# Description: Three Phase 3, double-blind, controlled studies of LMTM have been completed (one each in subjects with mild and mild to moderate AD and one in subjects with bvFTD). Results of the AD studies have been published (Gauthier et al., 2016; Wilcock et al., 2018).
# In these three studies, 1897 subjects received at least one dose of LMTM (Safety Population [Five additional subjects with AD, participating at one site in Study TRx-237-005, received a dose of study drug but were excluded from all analyses due to GCP violations], 1679 subjects with AD and 218 subjects with bvFTD). Of these, 860 subjects received the control (LMTM 8 mg/day, 750 with AD and 110 with bvFTD) and 1037 subjects received at least one dose of LMTM in the higher doses of 150 to 250 mg/day (929 with AD and 108 with bvFTD).
# The incidence of the most common TEAEs are summarised by dose in the following Table EX1. This includes TEAEs that occurred at an incidence of ≥2.0% either in subjects randomised to LMTM 8 mg/day or higher doses (150 to 250 mg/day). The subset of TEAEs that were severe in intensity are also included.
# The TEAEs are further analysed by using groupings of related MedDRA (Medical Dictionary for Regulatory Activities) preferred terms to better estimate the incidence of potentially treatment related adverse events. The incidence of all groupings for subjects categorised by dose (8 mg/day versus higher doses of 150 to 250 mg/day) is shown in the following Table EX2: […]
# [1] = Higher Doses (150-250 mg/day) (N = 1037)
# [2] = Higher Doses (150-250 mg/day) (N = 1037), All
# [3] = Higher Doses (150-250 mg/day) (N = 1037), Severe Intensity
structure (smiles),measurement,setting,value
"CN(C)c1ccc2c(c1)Sc1cc(N(C)C)ccc1N2 [LMTM, leuco-methylthioninium bis(hydromethanesulfonate)]",Grouped TEAE incidence: Affective/Anxiety Symptoms,[1],55 (5.3%) n (%)
same,Grouped TEAE incidence: Anaemia,[1],219 (21.1%) n (%)
same,Grouped TEAE incidence: Behavioral Symptoms,[1],118 (11.4%) n (%)
same,Grouped TEAE incidence: Falls and Related Terms,[1],202 (19.5%) n (%)
same,Grouped TEAE incidence: Hepatic Function Impairment,[1],34 (3.3%) n (%)
same,Grouped TEAE incidence: Hypersensitivity,[1],63 (6.1%) n (%)
same,"Grouped TEAE incidence: Ischaemic Events, Inclusive of Myocardial Infarction",[1],35 (3.4%) n (%)
same,Grouped TEAE incidence: Psychotic Symptoms,[1],34 (3.3%) n (%)
same,Grouped TEAE incidence: Renal Function Impairment,[1],42 (4.1%) n (%)
same,Grouped TEAE incidence: Renal and Urinary Disorders (Including Infections),[1],326 (31.4%) n (%)
same,Grouped TEAE incidence: Sleep Disorders,[1],48 (4.6%) n (%)
same,Grouped TEAE incidence: Targeted Gastrointestinal Events,[1],401 (38.7%) n (%)
same,No. (%) of Subjects Reporting at Least One TEAE,[2],902 (87.0%) n (%)
same,TEAE incidence: Abdominal pain,[2],30 (2.9%) n (%)
same,TEAE incidence: Abdominal pain upper,[2],21 (2.0%) n (%)
same,TEAE incidence: Agitation,[2],61 (5.9%) n (%)
same,TEAE incidence: Anaemia,[2],59 (5.7%) n (%)
same,TEAE incidence: Anxiety,[2],39 (3.8%) n (%)
same,TEAE incidence: Arthralgia,[2],31 (3.0%) n (%)
same,TEAE incidence: Atrial fibrillation,[2],10 (1.0%) n (%)
same,TEAE incidence: Back pain,[2],44 (4.2%) n (%)
same,TEAE incidence: Blood creatine phosphokinase increased,[2],31 (3.0%) n (%)
same,TEAE incidence: Blood folate decreased,[2],76 (7.3%) n (%)
same,TEAE incidence: Bronchitis,[2],19 (1.8%) n (%)
same,TEAE incidence: Cerebral microhaemorrhage,[2],16 (1.5%) n (%)
same,TEAE incidence: Confusional state,[2],45 (4.3%) n (%)
same,TEAE incidence: Constipation,[2],24 (2.3%) n (%)
same,TEAE incidence: Contusion,[2],15 (1.4%) n (%)
same,TEAE incidence: Cough,[2],42 (4.1%) n (%)
same,TEAE incidence: Decreased appetite,[2],39 (3.8%) n (%)
same,TEAE incidence: Dehydration,[2],18 (1.7%) n (%)
same,TEAE incidence: Depression,[2],37 (3.6%) n (%)
same,TEAE incidence: Diarrhoea,[2],278 (26.8%) n (%)
same,TEAE incidence: Dizziness,[2],64 (6.2%) n (%)
same,TEAE incidence: Dysuria,[2],75 (7.2%) n (%)
same,TEAE incidence: Fall,[2],78 (7.5%) n (%)
same,TEAE incidence: Fatigue,[2],38 (3.7%) n (%)
same,TEAE incidence: Folate deficiency,[2],45 (4.3%) n (%)
same,TEAE incidence: Haemoglobin decreased,[2],34 (3.3%) n (%)
same,TEAE incidence: Hallucination,[2],21 (2.0%) n (%)
same,TEAE incidence: Headache,[2],61 (5.9%) n (%)
same,TEAE incidence: Hypertension,[2],22 (2.1%) n (%)
same,TEAE incidence: Insomnia,[2],32 (3.1%) n (%)
same,TEAE incidence: Laceration,[2],14 (1.4%) n (%)
same,TEAE incidence: Micturition urgency,[2],35 (3.4%) n (%)
same,TEAE incidence: Nasopharyngitis,[2],43 (4.1%) n (%)
same,TEAE incidence: Nausea,[2],86 (8.3%) n (%)
same,TEAE incidence: Oedema peripheral,[2],20 (1.9%) n (%)
same,TEAE incidence: Pain in extremity,[2],17(1.6%) n (%)
same,TEAE incidence: Pollakiuria,[2],71 (6.8%) n (%)
same,TEAE incidence: Rash,[2],30 (2.9%) n (%)
same,TEAE incidence: Suicidal ideation,[2],30 (2.9%) n (%)
same,TEAE incidence: Syncope,[2],28 (2.7%) n (%)
same,TEAE incidence: Tremor,[2],13 (1.3%) n (%)
same,TEAE incidence: Upper respiratory tract infection,[2],34 (3.3%) n (%)
same,TEAE incidence: Urinary incontinence,[2],63 (6.1%) n (%)
same,TEAE incidence: Urinary tract infection,[2],116 (11.2%) n (%)
same,TEAE incidence: Vitamin B12 decreased,[2],21 (2.0%) n (%)
same,TEAE incidence: Vomiting,[2],80 (7.7%) n (%)
same,TEAE incidence: Weight decreased,[2],39 (3.8%) n (%)
same,No. (%) of Subjects Reporting at Least One TEAE,[3],126 (12.2%) n (%)
same,TEAE incidence: Abdominal pain,[3],1 (0.1%) n (%)
same,TEAE incidence: Abdominal pain upper,[3],0 n (%)
same,TEAE incidence: Agitation,[3],7 (0.7%) n (%)
same,TEAE incidence: Anaemia,[3],0 n (%)
same,TEAE incidence: Anxiety,[3],2 (0.2%) n (%)
same,TEAE incidence: Arthralgia,[3],1 (0.1%) n (%)
same,TEAE incidence: Atrial fibrillation,[3],2 (0.2%) n (%)
same,TEAE incidence: Back pain,[3],2 (0.2%) n (%)
same,TEAE incidence: Blood creatine phosphokinase increased,[3],0 n (%)
same,TEAE incidence: Blood folate decreased,[3],0 n (%)
same,TEAE incidence: Bronchitis,[3],0 n (%)
same,TEAE incidence: Cerebral microhaemorrhage,[3],0 n (%)
same,TEAE incidence: Confusional state,[3],2 (0.2%) n (%)
same,TEAE incidence: Constipation,[3],1 (0.1%) n (%)
same,TEAE incidence: Contusion,[3],0 n (%)
same,TEAE incidence: Cough,[3],0 n (%)
same,TEAE incidence: Decreased appetite,[3],1 (0.1%) n (%)
same,TEAE incidence: Dehydration,[3],2 (0.2%) n (%)
same,TEAE incidence: Depression,[3],2 (0.2%) n (%)
same,TEAE incidence: Diarrhoea,[3],14 (1.4%) n (%)
same,TEAE incidence: Dizziness,[3],2 (0.2%) n (%)
same,TEAE incidence: Dysuria,[3],1 (0.1%) n (%)
same,TEAE incidence: Fall,[3],7 (0.7%) n (%)
same,TEAE incidence: Fatigue,[3],1 (0.1%) n (%)
same,TEAE incidence: Folate deficiency,[3],0 n (%)
same,TEAE incidence: Haemoglobin decreased,[3],0 n (%)
same,TEAE incidence: Hallucination,[3],4 (0.4%) n (%)
same,TEAE incidence: Headache,[3],3 (0.3%) n (%)
same,TEAE incidence: Hypertension,[3],1 (0.1%) n (%)
same,TEAE incidence: Insomnia,[3],0 n (%)
same,TEAE incidence: Laceration,[3],1 (0.1%) n (%)
same,TEAE incidence: Micturition urgency,[3],0 n (%)
same,TEAE incidence: Nasopharyngitis,[3],0 n (%)
same,TEAE incidence: Nausea,[3],1 (0.1%) n (%)
same,TEAE incidence: Oedema peripheral,[3],0 n (%)
same,TEAE incidence: Pain in extremity,[3],0 n (%)
same,TEAE incidence: Pollakiuria,[3],2 (0.2%) n (%)
same,TEAE incidence: Rash,[3],0 n (%)
same,TEAE incidence: Suicidal ideation,[3],0 n (%)
same,TEAE incidence: Syncope,[3],5 (0.5%) n (%)
same,TEAE incidence: Tremor,[3],0 n (%)
same,TEAE incidence: Upper respiratory tract infection,[3],0 n (%)
same,TEAE incidence: Urinary incontinence,[3],1 (0.1%) n (%)
same,TEAE incidence: Urinary tract infection,[3],3 (0.3%) n (%)
same,TEAE incidence: Vitamin B12 decreased,[3],0 n (%)
same,TEAE incidence: Vomiting,[3],3 (0.3%) n (%)
same,TEAE incidence: Weight decreased,[3],0 n (%)
same,Grouped TEAE incidence: Affective/Anxiety Symptoms,LMTM 8 mg/day (N = 860),60 (7.0%) n (%)
same,Grouped TEAE incidence: Anaemia,LMTM 8 mg/day (N = 860),111 (12.9%) n (%)
